Tests used:
[1] = test system: Thioglycolate-elicited peritoneal macrophages; experiment: Macrophage response to E. coli infection: iNOS mRNA and NO production; format: cell-based, murine; conditions: 18 h, pretreated with 1 μM ligand, real-time quantitative PCR
Experimental: Thioglycolate-elicited peritoneal macrophages were infected in vitro with Escherichia coli. After 18 hours, expression of inducible nitric oxide synthase (iNOS) mRNA and nitric oxide (NO) production were assessed. […] Cells were then infected with E. coli (A, B) or treated with 100 ng/ml LPS(C, D, E) as indicated. After 18 h, NO production was determined using a colorimetric assay (A, D), or mRNA levels were determined using real-time quantitative PCR assays (B, C, E).
Thioglycolate-elicited peritoneal macrophages were cultured in RPMI containing 10% fetal bovine serum (FBS). […] For ligand treatments, cells were in cultured medium supplemented with 5% lipoprotein-deficient serum (LPDS) and ligands for 18 h before stimulation. […] NO production was determined spectrophotometrically (Castrillo, A. et al. 2000 Mol Cell Biol 20:1692-1698).
Total RNA was extracted using Trizol reagent (Life Technologies, Inc.). […] Real-time quantitative PCR (TaqMan) analysis was performed using an Applied Biosystems 7700 sequence detector.

[2] = test system: Thioglycolate-elicited murine peritoneal macrophages; experiment: LPS-stimulated macrophages: NO production, iNOS and ABCA1 mRNA; format: cell-based; conditions: for iNOS mRNA: 100 ng/ml LPS, 18 h, pretreated with 1 μM ligand, real-time quantitative PCR
Experimental: To investigate the role of LXRs in host defense, the influence of LXR agonists on macrophage responses to bacterial pathogens was tested. Thioglycolate-elicited peritoneal macrophages were infected in vitro with Escherichia coli. After 18 hours, expression of inducible nitric oxide synthase (iNOS) mRNA and nitric oxide (NO) production were assessed. […] This repression occurs over the same concentration range needed to induce the established LXR target gene ATP-binding cassette transporter A1 (ABCA1). A, LXR agonist inhibits nitrite production in response to bacterial infection. […] Cells were then infected with E. coli (A, B) or treated with 100 ng/ml LPS(C, D, E) as indicated. After 18 h, NO production was determined using a colorimetric assay (A, D), or mRNA levels were determined using real-time quantitative PCR assays (B, C, E). […] The inhibitory effect of LXR agonists on iNOS expression was dose-dependent and occurred over the same range of concentration as that required to induce ATP-binding cassette transporter A1 (ABCA1) (FIGS. 1D and E).
The anti-inflammatory activity of LXR ligands can be separated from the induction of lipid metabolism genes such as ABCA1. Murine peritoneal macrophages were treated with LPS to induce iNOS gene expression (FIG. 8A) and were assayed for ABCA1 mRNA by real time qPCR (FIG. 8B). NOx production was measured by colorimetric assay. […] The identification of LXR agonists with only anti-inflammatory activity should greatly increase the usefulness of such compounds as therapeutic agents, because they lack the unwanted side effects on lipid metabolism such as elevation of triglyceride levels.
Cell culture and transfections. Thioglycolate-elicited peritoneal macrophages were cultured in RPMI containing 10% fetal bovine serum (FBS). RAW 264.7 cells were cultured in DMEM containing 10% FBS. For ligand treatments, cells were in cultured medium supplemented with 5% lipoprotein-deficient serum (LPDS) and ligands for 18 h before stimulation. Bacterial infection in vitro was performed as described (Chen, L. M. et al. 1996 Mol Microbiol 21:1101-1115). Transient transfections of RAW 264.7 cells were performed in triplicate in 48-well plates using Superfect reagent (Life Technologies). After transfection, cells were incubated in medium containing 10% LPDS and the indicated ligands for 18 h before stimulation with LPS for an additional 18 h. Luciferase activity was normalized to β-galactosidase activity. NO production was determined spectrophotometrically (Castrillo, A. et al. 2000 Mol Cell Biol 20:1692-1698).
RNA and protein analysis. Total RNA was extracted using Trizol reagent (Life Technologies, Inc.). Northern blot analysis was carried out as described using radiolabeled cDNA probes (Tontonoz, P. et al. 1998 Cell 93:241-252). Real-time quantitative PCR (TaqMan) analysis was performed using an Applied Biosystems 7700 sequence detector. Two-step real-time PCR was performed as described (Joseph, S. B. et al. 2002 J Biol Chem 277:11019-11025). The primers and probes used are as follows: […]

[3] = test system: human peripheral blood mononuclear cells; experiment: TNF-induced gene expression in human peripheral blood mononuclear cells; format: cell-based; conditions: TNF 6 hours; real time qPCR
Experimental: (§1) Activation of LXR by synthetic ligands inhibits inflammatory gene expression in multiple human cell types (FIG. 7A-C). TNFα plays a role in the induction of inflammatory mediators in during inflammation. Cells were treated for 6 hours with TNF as indicated and gene expression was measured by real time qPCR.

[4] = test system: Thioglycolate-elicited murine peritoneal macrophages; experiment: Expression of NF-κB target genes in LPS-treated macrophages (northern blot, real-time quantitative PCR); format: cell-based
Experimental: LPS is an established inducer of the NF-κB signaling pathway in macrophages. Several genes inhibited by LXR ligands in the array studies above are established targets of NF-κB. To further investigate the role of LXRs in NF-κB-dependent gene expression, we analyzed expression of NF-κB target genes in peritoneal macrophages from wild-type mice. […] Expression of NF-κB target genes was determined by northern blot (A) or by real-time quantitative PCR assays (B). 36B4 was used as a control for RNA loading and integrity. […] RNA and protein analysis. Total RNA was extracted using Trizol reagent (Life Technologies, Inc.). Northern blot analysis was carried out as described using radiolabeled cDNA probes (Tontonoz, P. et al. 1998 Cell 93:241-252). Real-time quantitative PCR (TaqMan) analysis was performed using an Applied Biosystems 7700 sequence detector. Two-step real-time PCR was performed as described (Joseph, S. B. et al. 2002 J Biol Chem 277:11019-11025). The primers and probes used are as follows: […]

[5] = test system: human smooth muscle cells; experiment: TNF-induced gene expression in human smooth muscle cells; format: cell-based; conditions: TNF 6 hours; real time qPCR
Experimental: as §1

[6] = test system: human aortic endothelial cells; experiment: TNF-induced gene expression in human aortic endothelial cells; format: cell-based; conditions: TNF 6 hours; real time qPCR
Experimental: as §1

[7] = test system: Thioglycolate-elicited murine peritoneal macrophages; experiment: IL-1β- or TNFα-induced inflammatory gene expression in macrophages; format: cell-based; conditions: pretreated 18 h; IL-1β or TNFα (50 ng/ml); real-time quantitative PCR
Experimental: Next, the influence of LXR agonists on inflammatory gene expression induced by IL-1β and TNFα, which have been implicated in the pathogenesis of atherosclerosis, was tested. […] Gene expression was detected by real-time quantitative PCR assays. […] Total RNA was isolated from individual aortas and gene expression was measured by real-time quantitative PCR. P<0.05 for MMP-9 (*) and P<0.01 (**) for ABCA1. […] Thus, LXR agonist reduces expression of an established inflammatory mediator in the vessel wall. Cell culture and transfections. Thioglycolate-elicited peritoneal macrophages were cultured in RPMI containing 10% fetal bovine serum (FBS). RAW 264.7 cells were cultured in DMEM containing 10% FBS. For ligand treatments, cells were in cultured medium supplemented with 5% lipoprotein-deficient serum (LPDS) and ligands for 18 h before stimulation. Bacterial infection in vitro was performed as described (Chen, L. M. et al. 1996 Mol Microbiol 21:1101-1115). Transient transfections of RAW 264.7 cells were performed in triplicate in 48-well plates using Superfect reagent (Life Technologies). After transfection, cells were incubated in medium containing 10% LPDS and the indicated ligands for 18 h before stimulation with LPS for an additional 18 h. Luciferase activity was normalized to β-galactosidase activity. NO production was determined spectrophotometrically (Castrillo, A. et al. 2000 Mol Cell Biol 20:1692-1698). RNA and protein analysis. Total RNA was extracted using Trizol reagent (Life Technologies, Inc.). Northern blot analysis was carried out as described using radiolabeled cDNA probes (Tontonoz, P. et al. 1998 Cell 93:241-252). Real-time quantitative PCR (TaqMan) analysis was performed using an Applied Biosystems 7700 sequence detector. Two-step real-time PCR was performed as described (Joseph, S. B. et al. 2002 J Biol Chem 277:11019-11025). The primers and probes used are as follows: […]

[8] = test system: C57B1/6 mice; experiment: Murine model of irritant contact dermatitis (TPA-treated ear); format: in vivo; conditions: topical 20 μl of 10 mM at 45 min and 4 h post-TPA; 18 h; relative to vehicle-treated ear
Experimental: The effects of LXR ligands in both acute and chronic inflammatory contexts were evaluated. First, the effects of LXR agonists in a murine model of irritant contact dermatitis (Sheu, M. Y. et al. 2002 J Invest Dermatol 118:94-101) were studied. Ears of C57B1/6 mice (n=5 per group) were treated topically with 12-O-tetradecanoylphorbol-13-acetate (TPA) (left ear) or with vehicle (right ear). […] Thickness and weight of 6-mm punch biopsies were determined for each group after 18 h TPA treatment and are presented relative to vehicle-treated ear. […] Analysis of hematoxylin and eosin (H&E) stained sections of the TPA-treated ears confirmed a reduction in edema and inflammatory infiltrate by LXR agonist. Thus, two structurally unrelated LXR agonists have anti-inflammatory activity in a model of cutaneous inflammation.
Animals. Mice on a mixed background (C57B1/6 and 129v) and Apoe^−/− mice on a C57B1/6 background were maintained on standard chow. […] Irritant contact dermatitis was induced as described (Sheu, M. Y. et al. 2002 J Invest Dermatol 118:94-101). Briefly, 10 μl of 0.03% 12-O-tetradecanoylphorbol-13-acetate (TPA) in acetone was applied to the left ears of male mice. The right ears were treated with vehicle alone. […] After 18 h of TPA treatment, the thickness and weight of 6-mm punch biopsies were determined. Statistical analysis was performed using Student's t-test. Experiments were conducted in accordance of the Animal Research Committee of the University of California, Los Angeles.

Row | receptor-independent induction of IL-6 [4] | receptor-independent induction of MCP-1 [4] | Compound | iNOS mRNA [1] | iNOS mRNA [2] | TNF-induced gene expression [3] | TNF-induced gene expression [5] | TNF-induced gene expression [6] | induction of IL-6 expression [7] | induction of iNOS expression [7] | ear thickness [8] | ear weight (6-mm punch biopsies) [8] | activation of ABCA1 gene expression, T1317 compared with GW3965 ([2]; increasing doses, real time qPCR, FIG. 8B)
1 | – | – | Cc1cc(SCc2sc(-c3ccc(C(F)(F)F)cc3)nc2C)ccc1OCC(=O)O [GW1516] | minimal effects | minimal effects | – | – | – | – | – | – | – | –
2 | modest receptor-independent induction | modest receptor-independent induction | O=S(=O)(c1ccccc1)N(CC(F)(F)F)c1ccc(C(O)(C(F)(F)F)C(F)(F)F)cc1 [T1317, N-(2,2,2-trifluoro-ethyl)-N-[4-(2,2,2-trifluoro-1-hydroxy-1-trifluoromethyl-ethyl)-phenyl]-benzenesulfonamide] | – | – | inhibited | inhibited | inhibited | inhibit | inhibit | reduced | reduced | more effective activator
3 | – | – | GW7647 | minimal effects | minimal effects | – | – | – | – | – | – | – | –

Source: patent US20040259948A1, “Reciprocal regulation of inflammation and lipid metabolism by liver X receptors” (priority 2003, published 2004)
